Laboratory results taken from patent US9216965B2, “Amino-quinolines as kinase inhibitors” (GlaxoSmithKline Intellectual Property Development Limited, priority 2012, dated 2015).
Where a name gives a salt, the structure may show the parent alone.

Target: T1, RIPK2 (Homo sapiens, UniProt O43353)
T1 construct: Full length FLAG His tagged RIPK2 was purified from a Baculovirus expression system; FLAG (N); 6His (N); made in house; host or cells: Spodoptera frugiperda (Sf9) insect cells, baculovirus
Experiment: Fluorescent polarization based binding assay at the ATP binding pocket of RIPK2
Settings: full length FLAG His tagged RIPK2; competition with fluorescently labeled ATP competitive ligand (5 nM); mean of a minimum of 2 experiments
Method: A fluorescent polarization based binding assay was developed to quantitate interaction of novel test compounds at the ATP binding pocket of RIPK2, by competition with a fluorescently labeled ATP competitive ligand. Full length FLAG His tagged RIPK2 was purified from a Baculovirus expression system and was used at a final assay concentration of twice the KDapparent. […] Both the enzyme and ligand were prepared in solutions in 50 mM HEPES pH7.5, 150 mM NaCl, 10 mM MgCl2, 1 mM DTT, and 1 mM CHAPS. Test compounds were prepared in 100% DMSO and 100 nL was dispensed to individual wells of a multiwell plate. Next, 5 ul RIPK2 was added to the test compounds at twice the final assay concentration, and incubated at rt for 10 min. Following the incubation, 5 ul of the fluorescent labeled ligand solution, was added to each reaction, at twice the final assay concentration, and incubated at rt for at least 10 min. Finally, samples were read on an instrument capable of measuring fluorescent polarization. Test compound inhibition was expressed as percent (%) inhibition of internal assay controls.
For concentration/dose response experiments, normalized data were fit and pIC50s determined using conventional techniques.
Gateway® LR cloning was used to site-specifically recombine RIPK2 downstream to an N-terminal FLAG-6His contained within the destination vector pDEST8-FLAG-His6 according to the protocol described by Invitrogen. Transfection into Spodoptera frugiperda (Sf9) insect cells was performed using Cellfectin® (Invitrogen), according to the manufacturer's protocol.

T1 sequence (O43353 whole entry): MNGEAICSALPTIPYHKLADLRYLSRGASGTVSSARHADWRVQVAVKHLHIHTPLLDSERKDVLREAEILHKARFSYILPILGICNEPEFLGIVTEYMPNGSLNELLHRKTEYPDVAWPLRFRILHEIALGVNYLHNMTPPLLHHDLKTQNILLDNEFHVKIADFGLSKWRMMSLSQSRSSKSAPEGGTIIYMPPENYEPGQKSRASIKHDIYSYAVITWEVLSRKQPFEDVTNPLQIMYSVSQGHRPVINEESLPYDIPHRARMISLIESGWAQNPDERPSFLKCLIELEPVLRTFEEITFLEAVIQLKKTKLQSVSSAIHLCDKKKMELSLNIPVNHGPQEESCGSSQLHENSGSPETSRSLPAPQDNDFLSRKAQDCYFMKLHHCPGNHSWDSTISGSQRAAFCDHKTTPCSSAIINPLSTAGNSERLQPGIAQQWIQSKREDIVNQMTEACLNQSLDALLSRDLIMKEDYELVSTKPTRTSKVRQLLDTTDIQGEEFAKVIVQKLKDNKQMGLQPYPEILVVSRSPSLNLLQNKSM

SMILES | IC50 [nM]
Cc1n[nH]c(Nc2ccnc3cc(F)c(S(=O)(=O)C(C)(C)C)cc23)c1C [Example 10, 6-(tert-Butylsulfonyl)-N-(3,4-dimethyl-1H-pyrazol-5-yl)-7-fluoroquinolin-4-amine] | 15.8
Cc1n[nH]c(Nc2ccnc3cc(OC[C@@H](C)O)c(S(=O)(=O)C(C)(C)C)cc23)c1C [2(R), (R)-1-((6-(tert-Butylsulfonyl)-4-((3,4-dimethyl-1H-pyrazol-5-yl)amino)quinolin-7-yl)oxy)propan-2-ol, hydrochloride] | 3.16
Cc1n[nH]c(Nc2ccnc3cc(OCC(F)F)c(S(=O)(=O)C(C)(C)C)cc23)c1C [Example 5, 6-(tert-Butylsulfonyl)-7-(2,2-difluoroethoxy)-N-(3,4-dimethyl-1H-pyrazol-5-yl)quinolin-4-amine] | 5.01
Cc1n[nH]c(Nc2ccnc3cc(OC[C@H](C)O)c(S(=O)(=O)C(C)(C)C)cc23)c1C [2(S), (S)-1-((6-(tert-butylsulfonyl)-4-((3,4-dimethyl-1H-pyrazol-5-yl)amino)quinolin-7-yl)oxy)propan-2-ol, hydrochloride] | 3.16
Cc1n[nH]c(Nc2ccnc3cc(OCC(C)O)c(S(=O)(=O)C(C)(C)C)cc23)c1C (racemic) [Example 1, 1-((6-(tert-Butylsulfonyl)-4-((3,4-dimethyl-1H-pyrazol-5-yl)amino)quinolin-7-yl)oxy)propan-2-ol] | 3.98
Cc1n[nH]c(Nc2ccnc3cc(OCC(C)(C)O)c(S(=O)(=O)C(C)(C)C)cc23)c1C [Example 4, 1-((6-(tert-Butylsulfonyl)-4-((3,4-dimethyl-1H-pyrazol-5-yl)amino)quinolin-7-yl)oxy)-2-methylpropan-2-ol] | 6.31
COCCCOc1cc2nccc(Nc3[nH]nc(C)c3C)c2cc1S(=O)(=O)C(C)(C)C [Example 6, 6-(tert-Butylsulfonyl)-N-(3,4-dimethyl-1H-pyrazol-5-yl)-7-(3-methoxypropoxy)quinolin-4-amine] | 3.98
Cc1[nH]nc(Nc2ccnc3cc(OCC(F)(F)F)c(S(=O)(=O)C(C)(C)C)cc23)c1C [Example 7, 6-(tert-butylsulfonyl)-N-(4,5-dimethyl-1H-pyrazol-3-yl)-7-(2,2,2-trifluoroethoxy) quinolin-4-amine] | 5.01
